PubChem BioAssay AID2060509 (Molecular Pharmacology Branch, DTP, NCI, 2025)
Several values for one entry are separate records, joined by “and”; a condition that tells them apart may be missing. Equal values may be shown once.

Test system: 485176-168-R4-J1-PDC spheroids with HUVEC/MSC, viability
Assay: Anticancer human tumor 485176-168-R4-J1-PDC patient-derived pancreatic adenocarcinoma cell line growth inhibition [GQUAD]
Conditions: for viability, T/C: stronger effect = lower value
Source text: DNA G-quadruplex Stabilizer Agents in Combinations in Complex Spheroids
A high-throughput screen of multi-cell type tumor spheroids was designed to identify active combinations of DNA G-quadruplex stabilizer agents and targeted small molecules. Complex spheroids include a stromal component modeled by human endothelial cells (HUVEC) and fibroblasts modeled by human mesenchymal stem cells (MSCs). The concentration ranges selected for each drug and investigational agent were based upon clinically achievable concentrations if the clinical Cmax of the agent was known.
Compounds. The drugs and investigational agents: pidnarulex (CX-5461; NSC782164), APTO-253 (NSC789042), BRACO-19 (NSC847499), peposertib (NSC802822), ceralasertib (NSC780249), elimusertib (NSC800525), camonsertib (NSC841442), AZD-1390 (NSC803789), olaparib (NSC753686), talazoparib (NSC767125), ART-558 (NSC835418), sotorasib (NSC818433), MRTX-1133 (NSC836407), SN-38 (NSC673596), topotecan (NSC609699), etoposide (NSC141540), doxorubicin (NSC123127), gemcitabine (NSC613327), 5-fluorouracil (NSC19893), paclitaxel (NSC125973), vemurafenib (NSC761431), panobinostat (NSC761190), R-306465 (JNJ-16241199; NSC773264), adavosertib (NSC754352), TP-3654 (NSC805149), carboplatin (NSC241240), KSQ-4279 (NSC840948), and staurosporine (NSC755774) were obtained from the National Cancer Institute (NCI) Developmental Therapeutics Program Chemical Repository (34). The FDA-approved anticancer drug set is available from the NCI Developmental Therapeutics Program. […] The stock solutions were prepared in dimethyl sulfoxide (DMSO, Sigma-Aldrich, St. Louis, MO, cat. D2650) at 800-fold the tested concentration and stored at -70 degrees C prior to their use. All drugs and investigational agents were tested over a range starting from a high concentration at or near the clinical Cmax and decreasing in half-log increments. If the clinical Cmax for an agent had not been determined, the highest concentration tested was 10 microM.
2.3 Cell Culture. All cells were maintained in an incubator at 37 degrees C and 5% CO2 with 95% humidity. The PDC lines were cultured according to standard operating procedures established by the NCI PDMR. All PDCs were thawed and cultured in Matrigel-coated flasks prepared with a working solution of 1X Ham's F-12 nutrient mix, without supplementation (Invitrogen, cat. 11765054), 100 U/mL penicillin-streptomycin (Invitrogen, cat. 15140122), and 2.5% Matrigel (Corning Inc., cat. 354248) for the first three passages. The 857933-349-R-J2-PDC line was cultured in 6C/Colon 1B media, which includes advanced DMEM/F-12 (Thermo Fisher Scientific, cat. 12634028), 10 mM HEPES (Thermo Fisher Scientific, cat. 15630080), 1X GlutaMAX supplement (Thermo Fisher Scientific, cat. 35050061), 0.1 mg/mL primocin (InvivoGen, cat. ant-pm-2), 10% defined fetal bovine serum, heat inactivated (HyClone Laboratories Inc., cat. SH30070.03HI), 50% L-WRN conditioned media (ATCC, cat. CRL-3276), 1.25 mM N-Acetyl-L-cysteine (Sigma-Aldrich, cat. A9165), 10 mM nicotinamide (Sigma-Aldrich, cat. N0636), 1X B-27 supplement (Thermo Fisher Scientific, cat. 17504044), 1X N-2 supplement (Thermo Fisher Scientific, cat. 17502048), 10 microM Y-27632 dihydrochloride (Tocris Bioscience, cat. 1254), and 50 ng/mL human EGF recombinant protein (Thermo Fisher Scientific, cat. PHG0311). The 485176-168-R4-J1-PDC line was cultured in Panc media, which includes all 6C/Colon 1B media components plus 100 ng/mL human FGF-10 (Thermo Fisher Scientific, cat. 100-26), 500 nM SB-431542 (Selleckchem, cat. S1067), and gastrin (Tocris, cat. 3006).
[…]

[1] = compound alone, run of 03/18/2024
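Further: spheroids exposed to compounds for seven days before readout.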
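Wherever viability, T/C is given: percent viability relative to DMSO vehicle control wells as 100%.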

SMILES	viability, T/C (compound 0.0316 µM)	viability, T/C (compound 0.1 µM)	viability, T/C (compound 0.316 µM)	viability, T/C (compound 1 µM)	viability, T/C (compound 3.16 µM)	viability, T/C (compound 10 µM)	IC50 (curve of compound)	IC50 [1]	IC50 (compound alone, run of 03/26/2024) [nM]	viability, T/C (compound 0.000999 µM)	viability, T/C (compound 0.00316 µM)	viability, T/C (compound 0.00999 µM)	viability, T/C (compound 0.0999 µM)
COc1cc(C2c3cc4c(cc3C(OC3OC5COC(C)OC5C(O)C3O)C3COC(=O)C23)OCO4)cc(OC)c1O (stereo not given)	102% and 101% and 95%	80.2% and 68.8% and 67.7%	46.6% and 39.1% and 39.6%	39.9% and 38.8% and 40.8%	25.9% and 24.6% and 23.1%	13.2% and 13.4% and 11%	406 nM and 255 nM and 269 nM	–	–	–	–	–	–
COc1ccc([C@@H](O)c2cc(-c3ncnc4cc(N5CCOCC5)ccc34)c(F)cc2Cl)nn1	89.1% and 113% and 89.2%	75.3% and 88.3% and 77.7%	87.5% and 97.3% and 96%	73.4% and 71.1% and 64.4%	46.6% and 64.8% and 57.1%	31.4% and 30% and 28.4%	2720 nM and 4600 nM and 3810 nM	–	–	–	–	–	–
COc1cccc2c1C(=O)c1c(O)c3c(c(O)c1C2=O)CC(O)(C(=O)CO)CC3OC1CC(N)C(O)C(C)O1 (stereo not given)	94.5% and 91.5% and 81.9%	59.7% and 68.6% and 56.4%	51.7% and 52.9% and 48.3%	16% and 16.9% and 15.1%	4.15% and 1.93% and 4.74%	0.3% and 0.31% and 0.43%	215 nM and 283 nM and 193 nM	–	–	–	–	–	–
COc1ncnc(C2CC2)c1-c1ncc2cnn(Cc3ccc(-c4nc(C(F)(F)F)cn4C(C)C)cc3)c2n1	95.3% and 93.3% and 91.2%	96.5% and 107% and 90.4%	104% and 96.2% and 105%	84.1% and 92.2% and 106%	102% and 107% and 93.4%	103% and 106% and 98.5%	> 10000 nM	–	–	–	–	–	–
Cc1[nH]c2ccc(F)cc2c1-c1nc2c3cccnc3c3ncccc3c2[nH]1	–	101% [middle of 12 runs]	97.9% [middle of 12 runs]	99.5% [middle of 12 runs]	–	78.8% [middle of 12 runs]	–	> 10000 nM	> 10000	–	–	–	–
Cc1[nH]c2ccccc2c1CCNCc1ccc(/C=C/C(=O)NO)cc1	81.7% and 86% and 77.5%	–	14.2% and 10.4% and 16.8%	–	–	–	168 nM and 102 nM and 138 nM	–	–	113% and 108% and 97.3%	115% and 82.3% and 88%	94.8% and 93.9% and 87%	89.2% and 50.2% and 66%
Cc1cccc(N(C)C(=O)C2C(O)CCN2c2nc(C)cc(C(F)(F)F)c2C#N)c1 (stereo not given)	103% and 99% and 105%	85.8% and 79.2% and 87.1%	84.3% and 101% and 97.6%	85.8% and 105% and 76.4%	97.7% and 103% and 97.5%	95.4% and 91.5% and 89.9%	> 10000 nM	–	–	–	–	–	–
Cc1cnc(CNC(=O)c2c(=O)c3ccc(N4CCCN(C)CC4)nc3n3c2sc2ccccc23)cn1	90.3% [middle of 12 runs]	78.8% [middle of 12 runs]	64.4% [middle of 12 runs]	55% [middle of 12 runs]	39.6% [middle of 12 runs]	36.6% [middle of 12 runs]	–	1.17 µM [middle of 10 runs]	–	–	–	–	–
Cn1ncnc1[C@H]1c2n[nH]c(=O)c3cc(F)cc(c23)N[C@@H]1c1ccc(F)cc1	98.8% and 101% and 88.8%	–	75.9% and 98.5% and 85.9%	–	–	–	> 316 nM	–	–	99.2% (2×) and 86.5%	95.2% and 94% and 85.8%	96.4% and 108% and 91.5%	91.2% and 91.7% and 89.7%
Nc1ccn(C2OC(CO)C(O)C2(F)F)c(=O)n1 (stereo not given)	76.8% and 70.1% and 75.6%	16.7% and 16.1% and 15.4%	11.3% and 7.32% and 9.64%	10.3% and 9.3% and 8.42%	10.7% and 12.2% and 11.5%	13% and 12.5% and 11.1%	52.9 nM and 48.4 nM and 51.6 nM	–	–	–	–	–	–
O=C(NO)c1cnc(N2CCN(S(=O)(=O)c3ccc4ccccc4c3)CC2)nc1	83.4% and 107% and 97.9%	99.5% and 73.2% and 76.1%	67.6% and 78.2% and 61.2%	7.2% and 12.1% and 11%	0.3% and 0.31% and 0.2%	0.3% and 0.31% and 0.29%	443 nM and 512 nM and 378 nM	–	–	–	–	–	–
O=C(c1cc(Cc2n[nH]c(=O)c3ccccc23)ccc1F)N1CCN(C(=O)C2CC2)CC1	94.9% and 101% and 98%	100% and 97.5% and 90.3%	84.3% and 99.6% and 85.8%	89.3% and 98.4% and 81.9%	85.7% and 102% and 88.1%	80% and 77.6% and 68.8%	> 10000 nM	–	–	–	–	–	–
O=c1[nH]cc(F)c(=O)[nH]1	95.9% and 97.3% and 84.9%	85.5% and 91% and 89.7%	79.7% and 75.4% and 64%	56.6% and 60.5% and 59.2%	48.2% and 46.2% and 45.4%	46.8% and 46.7% and 54.9%	2610 nM and 2750 nM and > 10000 nM	–	–	–	–	–	–
